How the values were obtained:
JAK1 = JAK1 (Homo sapiens (Human), UniProt P23458); experiment: Jak Biochemical HTRF Assay, JAK1; settings: HTRF biochemical assay, GST-tagged catalytic domain; top concentration tested […]; read-out: JAK1 IC50
Description: (§1) Jak Biochemical HTRF Assay Protocol
(§2) Subsequent reagent additions employed an Agilent Bravo.

JAK2 = JAK2 (Homo sapiens (Human), UniProt O60674); experiment: Jak Biochemical HTRF Assay, JAK2; settings: HTRF biochemical assay, GST-tagged catalytic domain; top concentration tested […]
JAK2, sequence (O60674 849-1124): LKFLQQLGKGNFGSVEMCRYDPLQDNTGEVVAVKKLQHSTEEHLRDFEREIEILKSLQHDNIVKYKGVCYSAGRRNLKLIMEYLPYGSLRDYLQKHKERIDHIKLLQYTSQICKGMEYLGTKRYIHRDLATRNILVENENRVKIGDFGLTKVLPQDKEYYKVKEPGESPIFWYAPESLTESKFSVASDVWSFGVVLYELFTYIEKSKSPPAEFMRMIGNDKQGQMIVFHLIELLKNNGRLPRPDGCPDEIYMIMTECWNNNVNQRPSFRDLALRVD
Description: as §1, §2

JAK1, sequence (P23458 875-1153): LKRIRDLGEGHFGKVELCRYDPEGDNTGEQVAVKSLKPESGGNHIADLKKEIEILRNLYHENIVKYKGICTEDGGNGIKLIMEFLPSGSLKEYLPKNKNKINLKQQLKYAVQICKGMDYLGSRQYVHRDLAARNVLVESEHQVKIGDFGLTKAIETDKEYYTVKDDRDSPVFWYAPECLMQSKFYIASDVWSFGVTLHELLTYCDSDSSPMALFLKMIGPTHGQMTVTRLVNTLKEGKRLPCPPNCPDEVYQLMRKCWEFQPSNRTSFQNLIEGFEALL

CC1(C(=O)N2CCC(CC#N)(n3cc(C(N)=O)c(Nc4ccnc(F)c4)n3)CC2)CCC1 [Example 34-60, 1-{4-(cyanomethyl)-1-[(1-methylcyclobutyl)carbonyl]piperidin-4-yl}-3-[(2-fluoropyridin-4-yl)amino]-1H-pyrazole-4-carboxamide]
IC50 (JAK1): 8 nM
IC50 (JAK2): 115 nM

CC(O)(C(=O)N1CCC(CC#N)(n2cc(C(N)=O)c(Nc3ccnc(F)c3)n2)CC1)C(F)F (centres unmarked) [Example 34-61, 1-[4-(cyanomethyl)-1-(3,3-difluoro-2-hydroxy-2-methylpropanoyl)piperidin-4-yl]-3-[(2-fluoropyridin-4-yl)amino]-1H-pyrazole-4-carboxamide]
IC50 (JAK1): 2 nM
IC50 (JAK2): 38 nM

C[C@@H](O)CC(=O)N1CCC(CC#N)(n2cc(C(N)=O)c(Nc3ccnc(F)c3)n2)CC1 [Example 34-62, 1-{4-(cyanomethyl)-1-[(3R)-3-hydroxybutanoyl]piperidin-4-yl}-3-[(2-fluoropyridin-4-yl)amino]-1H-pyrazole-4-carboxamide]
IC50 (JAK1): 1 nM
IC50 (JAK2): 47 nM

N#CCC1(n2cc(C(N)=O)c(Nc3ccnc(F)c3)n2)CCN(C(=O)CC(F)(F)F)CC1 [Example 35-2, 1-(4-(cyanomethyl)-1-(3,3,3-trifluoropropanoyl)piperidin-4-yl)-3-(2-fluoropyridin-4-ylamino)-1H-pyrazole-4-carboxamide]
IC50 (JAK1): 0.2 nM
IC50 (JAK2): 10 nM

N#CCC1(n2cc(C(N)=O)c(Nc3cncc(F)c3)n2)CCN(C(=O)CC(F)(F)F)CC1 [Example 35-3, 1-(4-(cyanomethyl)-1-(3,3,3-trifluoropropanoyl)piperidin-4-yl)-3-(5-fluoropyridin-3-ylamino)-1H-pyrazole-4-carboxamide]
IC50 (JAK1): 3 nM
IC50 (JAK2): 35 nM

N#CCC(=O)N1CCC(CC#N)(n2cc(C(N)=O)c(Nc3ccccc3)n2)CC1 [Example 36-1, 1-[1-(Cyanoacetyl)-4-(cyanomethyl)piperidin-4-yl]-3-(phenylamino)-1H-pyrazole-4-carboxamide]
IC50 (JAK1): 5 nM
IC50 (JAK2): 77 nM

CS(=O)(=O)c1ccc(Nc2nn(C3(CC#N)CCN(C(=O)CC#N)CC3)cc2C(N)=O)cc1 [Example 36-2, 1-[1-(cyanoacetyl)-4-(cyanomethyl)piperidin-4-yl]-3-{[4-(methylsulfonyl)phenyl]amino}-1H-pyrazole-4-carboxamide]
IC50 (JAK1): 0.6 nM
IC50 (JAK2): 10 nM

CC(C)S(=O)(=O)N1CCC(CC#N)(n2cc(C(N)=O)c(Nc3ccccc3)n2)CC1 [Example 37-1, 1-[4-(Cyanomethyl)-1-(isopropylsulfonyl)piperidin-4-yl]-3-(phenylamino)-1H-pyrazole-4-carboxamide]
IC50 (JAK1): 2 nM
IC50 (JAK2): 13 nM

CS(=O)(=O)N1CCC(CC#N)(n2cc(C(N)=O)c(Nc3ccccc3)n2)CC1 [Example 37-2, 1-[4-(cyanomethyl)-1-(methylsulfonyl)piperidin-4-yl]-3-(phenylamino)-1H-pyrazole-4-carboxamide]
IC50 (JAK1): 0.4 nM
IC50 (JAK2): 3 nM

CCS(=O)(=O)N1CCC(CC#N)(n2cc(C(N)=O)c(Nc3ccccc3)n2)CC1 [Example 37-3, 1-[4-(cyanomethyl)-1-(ethylsulfonyl)piperidin-4-yl]-3-(phenylamino)-1H-pyrazole-4-carboxamide]
IC50 (JAK1): 1 nM
IC50 (JAK2): 12 nM

N#CCC1(n2cc(C(N)=O)c(Nc3ccccc3)n2)CCN(S(=O)(=O)c2ccco2)CC1 [Example 37-4, 1-[4-(cyanomethyl)-1-(furan-2-ylsulfonyl)piperidin-4-yl]-3-(phenylamino)-1H-pyrazole-4-carboxamide]
IC50 (JAK1): 0.6 nM
IC50 (JAK2): 2 nM

N#CCC1(n2cc(C(N)=O)c(Nc3ccccc3)n2)CCN(S(=O)(=O)C(F)(F)F)CC1 [Example 37-5, 1-{4-(cyanomethyl)-1-[(trifluoromethyl)sulfonyl]piperidin-4-yl}-3-(phenylamino)-1H-pyrazole-4-carboxamide]
IC50 (JAK1): 0.7 nM
IC50 (JAK2): 6 nM

N#CCC1(n2cc(C(N)=O)c(Nc3ccccc3)n2)CCN(S(=O)(=O)c2ccccc2)CC1 [Example 37-6, 1-[4-(cyanomethyl)-1-(phenylsulfonyl)piperidin-4-yl]-3-(phenylamino)-1H-pyrazole-4-carboxamide]
IC50 (JAK1): 0.3 nM
IC50 (JAK2): 1 nM

Cn1cnc(S(=O)(=O)N2CCC(CC#N)(n3cc(C(N)=O)c(Nc4ccccc4)n3)CC2)c1 [Example 37-7, 1-{4-(cyanomethyl)-1-[(1-methyl-1H-imidazol-4-yl)sulfonyl]piperidin-4-yl}-3-(phenylamino)-1H-pyrazole-4-carboxamide]
IC50 (JAK1): 2 nM
IC50 (JAK2): 9 nM

N#CCC1(n2cc(C(N)=O)c(Nc3ccccc3)n2)CCN(S(=O)(=O)Cc2ccccc2)CC1 [Example 37-8, 1-[1-(benzylsulfonyl)-4-(cyanomethyl)piperidin-4-yl]-3-(phenylamino)-1H-pyrazole-4-carboxamide]
IC50 (JAK1): 15 nM
IC50 (JAK2): 35 nM

COc1ccc(S(=O)(=O)N2CCC(CC#N)(n3cc(C(N)=O)c(Nc4ccccc4)n3)CC2)cc1 [Example 37-9, 1-{4-(cyanomethyl)-1-[(4-methoxyphenyl)sulfonyl]piperidin-4-yl}-3-(phenylamino)-1H-pyrazole-4-carboxamide]
IC50 (JAK1): 0.8 nM
IC50 (JAK2): 3 nM

COc1cccc(S(=O)(=O)N2CCC(CC#N)(n3cc(C(N)=O)c(Nc4ccccc4)n3)CC2)c1 [Example 37-10, 1-{4-(cyanomethyl)-1-[(3-methoxyphenyl)sulfonyl]piperidin-4-yl}-3-(phenylamino)-1H-pyrazole-4-carboxamide]
IC50 (JAK1): 0.7 nM
IC50 (JAK2): 3 nM

N#CCC1(n2cc(C(N)=O)c(Nc3ccccc3)n2)CCN(S(=O)(=O)c2cccc(Cl)c2)CC1 [Example 37-11, 1-{1-[(3-chlorophenyl)sulfonyl]-4-(cyanomethyl)piperidin-4-yl}-3-(phenylamino)-1H-pyrazole-4-carboxamide]
IC50 (JAK1): 0.6 nM
IC50 (JAK2): 2 nM

N#CCC1(n2cc(C(N)=O)c(Nc3ccccc3)n2)CCN(S(=O)(=O)c2ccccc2Cl)CC1 [Example 37-12, 1-{1-[(2-chlorophenyl)sulfonyl]-4-(cyanomethyl)piperidin-4-yl}-3-(phenylamino)-1H-pyrazole-4-carboxamide]
IC50 (JAK1): 3 nM
IC50 (JAK2): 9 nM

N#CCC1(n2cc(C(N)=O)c(Nc3ccccc3)n2)CCN(S(=O)(=O)c2ccc(-c3ccccc3)cc2)CC1 [Example 37-14, 1-[1-(biphenyl-4-ylsulfonyl)-4-(cyanomethyl)piperidin-4-yl]-3-(phenylamino)-1H-pyrazole-4-carboxamide]
IC50 (JAK1): 5 nM
IC50 (JAK2): 24 nM

N#CCC1(n2cc(C(N)=O)c(Nc3ccccc3)n2)CCN(S(=O)(=O)C2CC2)CC1 [Example 37-15, 1-[4-(cyanomethyl)-1-(cyclopropylsulfonyl)piperidin-4-yl]-3-(phenylamino)-1H-pyrazole-4-carboxamide]
IC50 (JAK1): 0.4 nM
IC50 (JAK2): 3 nM

CS(=O)(=O)N1CC(CC#N)(n2cc(C(N)=O)c(Nc3ccccc3)n2)C1 [Example 37-16, 1-[3-(cyanomethyl)-1-(methylsulfonyl)azetidin-3-yl]-3-(phenylamino)-1H-pyrazole-4-carboxamide]
IC50 (JAK1): 79 nM
IC50 (JAK2): 366 nM

N#CCC1(n2cc(C(N)=O)c(Nc3ccccc3)n2)CN(S(=O)(=O)c2ccco2)C1 [Example 37-17, 1-[3-(cyanomethyl)-1-(furan-2-ylsulfonyl)azetidin-3-yl]-3-(phenylamino)-1H-pyrazole-4-carboxamide]
IC50 (JAK1): 95 nM
IC50 (JAK2): 247 nM

N#CCC1(n2cc(C(N)=O)c(Nc3ccccc3)n2)CN(S(=O)(=O)C(F)(F)F)C1 [Example 37-18, 1-{3-(cyanomethyl)-1-[(trifluoromethyl)sulfonyl]azetidin-3-yl}-3-(phenylamino)-1H-pyrazole-4-carboxamide]
IC50 (JAK1): 159 nM
IC50 (JAK2): 585 nM

N#CCC1(n2cc(C(N)=O)c(Nc3ccccc3)n2)CN(S(=O)(=O)c2ccccc2)C1 [Example 37-19, 1-[3-(cyanomethyl)-1-(phenylsulfonyl)azetidin-3-yl]-3-(phenylamino)-1H-pyrazole-4-carboxamide]
IC50 (JAK1): 138 nM
IC50 (JAK2): 463 nM

N#CCC1(n2cc(C(N)=O)c(Nc3ccccc3)n2)CN(S(=O)(=O)Cc2ccccc2)C1 [Example 37-20, 1-[1-(benzylsulfonyl)-3-(cyanomethyl)azetidin-3-yl]-3-(phenylamino)-1H-pyrazole-4-carboxamide]
IC50 (JAK1): 105 nM
IC50 (JAK2): 521 nM

N#CCC1(n2cc(C(N)=O)c(Nc3ccccc3)n2)CN(C(=O)Nc2cccc(F)c2)C1 [Example 38-1, 1-{3-(Cyanomethyl)-1-[(3-fluorophenyl)carbamoyl]azetidin-3-yl}-3-(phenylamino)-1H pyrazole-4-carboxamide]
IC50 (JAK1): 3 nM
IC50 (JAK2): 68 nM

N#CCC1(n2cc(C(N)=O)c(Nc3ccccc3)n2)CN(C(=O)NC2CCCCC2)C1 [Example 38-2, 1-[3-(cyanomethyl)-1-(cyclohexylcarbamoyl)azetidin-3-yl]-3-(phenylamino)-1H-pyrazole-4-carboxamide]
IC50 (JAK1): 20 nM
IC50 (JAK2): 628 nM

CC(C)NC(=O)N1CC(CC#N)(n2cc(C(N)=O)c(Nc3ccccc3)n2)C1 [Example 38-3, 1-{3-(cyanomethyl)-1-[(1-methylethyl)carbamoyl]azetidin-3-yl}-3-(phenylamino)-1H-pyrazole-4-carboxamide]
IC50 (JAK1): 10 nM
IC50 (JAK2): 185 nM

Cc1ccc(NC(=O)N2CC(CC#N)(n3cc(C(N)=O)c(Nc4ccccc4)n3)C2)cc1C [Example 38-4, 1-{3-(cyanomethyl)-1-[(3,4-dimethylphenyl)carbamoyl]azetidin-3-yl}-3-(phenylamino)-1H-pyrazole-4-carboxamide]
IC50 (JAK1): 12 nM
IC50 (JAK2): 191 nM

CCCCNC(=O)N1CC(CC#N)(n2cc(C(N)=O)c(Nc3ccccc3)n2)C1 [Example 38-5, 1-[1-(butylcarbamoyl)-3-(cyanomethyl)azetidin-3-yl]-3-(phenylamino)-1H-pyrazole-4-carboxamide]
IC50 (JAK1): 4 nM
IC50 (JAK2): 214 nM
